The values below come from patent publication US8207330B2, “Two-photon absorption material and application thereof” (Ricoh Company, Ltd., priority 2008, dated 2012).

A short description of the data set: Two-photon absorption cross-sectional area, Z scan method, Examples B. It counts as physicochemical. Conditions: tetrahydrofuran solution, femtosecond laser, 780 nm to 960 nm (710 nm to 990 nm). Here is the method:
Each of Compounds (1), (2), (57), (58), (59), (60), (3), (4), (61), (62), (25), (26), (63), (64), (65), (66), (45), (67), (68), (69), (70), (71), (72), (5), (9), (13), (19), (27), (31), (32), (34), (36), (39), (44), (53) and (55) was dissolved in tetrahydrofuran, and the resultant tetrahydrofuran solution was measured for its two-photon absorption cross-sectional area according to the below-described evaluation method therefor.
This measurement was performed under the following conditions:
Sample concentration: 10^−2 mol to 10^−5 mol (this range covering optimal concentrations of the samples (at which measurements are easily performed));
Light path length of cell: 10 mm (corresponding to the inner diameter of cuvette);
Light: variable femtosecond laser having a wavelength of 710 nm to 990 nm; and
Light power: 10 mW to 800 mW.
The following compound (73) was dissolved in tetrahydrofuran, and the resultant solution was measured for its two-photon absorption cross-sectional area according to the below-described evaluation method therefor.
The following compound (74) was dissolved in tetrahydrofuran, and the resultant solution was measured for its two-photon absorption cross-sectional area according to the below-described evaluation method therefor.
[drawing 68] [Method for Measuring Two-Photon Absorption Cross-Sectional Area]
FIG. 8 schematically illustrates a system of the method.
Measuring light source: femtosecond titanium sapphire laser
Repetition frequency: 80 MHz
Measuring method: Z scan method
Inner diameter of cuvette: 10 mm
Light power for measurement: about 500 mW
Collection diameter: 40 μm to 50 μm
A quartz cell filled with each sample solution was placed in a light path through which a focused laser beam was passed. Then, the cell was moved along the light path for Z-scan measurement.
The sample solution was measured for its transmittance, and the thus-obtained value and the following theoretical equation (I) were used to determine a nonlinear absorption coefficient of the sample. T=[ln(1+I0L0β)]/I0L0β (I)
where T denotes a transmittance (%), I0 denotes an excited light density [GW/cm^2], L0 denotes a sample cell length [cm], and β denotes a nonlinear absorption coefficient [cm/GW].
The thus-determined nonlinear absorption coefficient and the following equation (ii) were used to calculate a two-photon absorption cross-sectional area σ. Note that the unit of σ is GM (1 GM=1×10^−50 cm^4·s·photon^−1). σ=1,000×hvβ/[…] (ii)
where h denotes the Planck's constant [J·s], v denotes a frequency of an incident laser beam [s^−1], NA denotes the Avogadoro's number, and C denotes a concentration of a solution [mol/L].
For `CCCCCCc1ccc(N(c2ccc(C3=C4C=CC(=N4)C(c4ccccc4C)=c4ccc5[n]4[Pd][n]4c3ccc4C(c3ccccc3C)=C3C=CC(=N3)C=5c3ccc(/C=C/c4ccc(N(c5ccccc5)c5ccccc5)cc4)cc3)cc2)c2ccc(C3=c4ccc5[n]4[Pd][n]4c(ccc4C(c4ccccc4C)=C4C=CC3=N4)C=C3C=CC(=N3)C=5c3ccccc3C)cc2)cc1` [(31)], the “Two-photon absorption cross-sectional area” value is 890 GM.

Consider `CC1=C(C)C2=C(I)c3c(C)c(C)c4[n]3[Zn][n]3c(cc(C)c3=C(c3ccccc3C(F)(F)F)C1=N2)=C(c1ccc2c(c1)C(C)(C)c1cc(C3=C5N=C(C(C)=C5C)C(c5ccccc5C(F)(F)F)=c5c(C)c(C)c6[n]5[Zn][n]5c3c(C)c(C)c5C(c3ccccc3C(F)(F)F)=C3N=C(C(C)=C3C)C=6I)ccc1-2)C1=NC(=C4c2ccccc2C(F)(F)F)C(C)=C1C` [(44)], for which the “Two-photon absorption cross-sectional area” value is 1,000 GM.

For `CCC1=C(C)c2nc1c(Br)c1[nH]c(c(C)c1CC)c(Br)c1nc(c(-c3ccc(N(c4ccccc4)c4ccc(-c5c6nc(c(-c7ccccc7C(F)(F)F)c7[nH]c(c(Br)c8nc(c(Br)c9[nH]c5c(CC)c9C)C(C)=C8CC)c(CC)c7C)C(C)=C6CC)cc4)cc3)c3[nH]c(c(C)c3CC)c2-c2ccccc2C(F)(F)F)C(CC)=C1C` [(53)], the “Two-photon absorption cross-sectional area” value worked out at 840 GM.

For the compound `CCCCCCC1(CCCCCC)c2cc(C3=C4C=CC(=N4)C(c4cc(OC)c(OC)c(OC)c4)=c4ccc5[n]4[Ni][n]4c(ccc43)C(c3cc(OC)c(OC)c(OC)c3)=C3C=CC(=N3)C=5/C=C/c3ccc(N(c4ccccc4)c4ccccc4)cc3)ccc2-c2ccc(C3=c4ccc5[n]4[Ni][n]4c(ccc4C(c4cc(OC)c(OC)c(OC)c4)=C4C=CC3=N4)C=C3C=CC(=N3)C=5c3cc(OC)c(OC)c(OC)c3)cc21` [(68)], the “Two-photon absorption cross-sectional area” value was 1,020 GM.

With `CCC1=C(C)C2=C(c3cc(OC)c(OC)c(OC)c3)c3c(C)c(CC)c4[n]3[Cu][n]3c(c(C)c(CC)c3=C(c3ccc(/C=C/c5ccc(N(c6ccc(C)cc6)c6ccc(C)cc6)cc5)cc3)C1=N2)=C(c1cc(OC)c(OC)c(OC)c1)C1=NC(=C4c2ccc(/C=C/c3ccc(N(c4ccc(C)cc4)c4ccc(C)cc4)cc3)cc2)C(CC)=C1C` [(62)], the “Two-photon absorption cross-sectional area” value amounted to 840 GM.

Regarding `CCCCCCc1ccc(N(c2ccc(C3=C4N=C(C(C)=C4CC)C(c4c(C)cc(C)cc4C)=c4c(C)c(CC)c5[n]4[Pd][n]4c(c(C)c(CC)c43)C(c3c(C)cc(C)cc3C)=C3N=C(C=5)C(CC)=C3C)cc2)c2ccc(C3=c4c(CC)c(C)c5[n]4[Pd][n]4c(c(CC)c(C)c4C(c4c(C)cc(C)cc4C)=C4N=C3C(CC)=C4C)C=C3N=C(C(C)=C3CC)C=5c3c(C)cc(C)cc3C)cc2)cc1` [(64)], the “Two-photon absorption cross-sectional area” value was determined as 890 GM.

`CC(C)(C)c1c2nc(c(C(C)(C)C)c3ccc([nH]3)c(C(C)(C)C)c3nc(c(C(C)(C)C)c4ccc1[nH]4)C=C3)C=C2` [(73), reference compound]: the “Two-photon absorption cross-sectional area” value is listed as “≈0 GM”.

For `CCCCCCc1ccc(N(c2ccc(C3=C4N=C(C(C)=C4CC)C(c4c(C)cc(C)cc4C)=c4c(C)c(CC)c5[n]4[Co][n]4c(c(C)c(CC)c43)C(c3c(C)cc(C)cc3C)=C3N=C(C=5)C(CC)=C3C)cc2)c2ccc(C3=c4c(CC)c(C)c5[n]4[Co][n]4c(c(CC)c(C)c4C(c4c(C)cc(C)cc4C)=C4N=C3C(CC)=C4C)C=C3N=C(C(C)=C3CC)C=5c3c(C)cc(C)cc3C)cc2)cc1` [(65)], the “Two-photon absorption cross-sectional area” value turned out to be 810 GM.

As for `CCC1=C(C)c2nc1cc1[nH]c(c(C)c1CC)c(-c1ccccc1C(F)(F)F)c1nc(c(-c3ccc4c(c3)C(C)(C)c3cc(-c5c6nc(c(-c7ccccc7C(F)(F)F)c7[nH]c(cc8nc(c(-c9ccccc9C(F)(F)F)c9[nH]c5c(CC)c9C)C(C)=C8CC)c(CC)c7C)C(C)=C6CC)ccc3-4)c3[nH]c(c(C)c3CC)c2-c2ccccc2C(F)(F)F)C(CC)=C1C` [(39)], the “Two-photon absorption cross-sectional area” value is given as 890 GM.

For `CCCCCCC1(CCCCCC)c2cc(C3=C4C=CC(=N4)C(c4cc(OC)c(OC)c(OC)c4)=c4ccc5[n]4[Zn][n]4c(ccc43)C(c3cc(OC)c(OC)c(OC)c3)=C3C=CC(=N3)C=5/C=C/c3ccc(N(c4ccccc4)c4ccccc4)cc3)ccc2-c2ccc(C3=c4ccc5[n]4[Zn][n]4c(ccc4C(c4cc(OC)c(OC)c(OC)c4)=C4C=CC3=N4)C=C3C=CC(=N3)C=5c3cc(OC)c(OC)c(OC)c3)cc21` [(45)], the “Two-photon absorption cross-sectional area” value is reported as 1,200 GM.

On to `CCCCCCC1(CCCCCC)c2cc(C3=C4C=CC(=N4)C(c4cc(OC)c(OC)c(OC)c4)=c4ccc5[n]4[Cu][n]4c(ccc43)C(c3cc(OC)c(OC)c(OC)c3)=C3C=CC(=N3)C=5/C=C/c3ccc(N(c4ccccc4)c4ccccc4)cc3)ccc2-c2ccc(C3=c4ccc5[n]4[Cu][n]4c(ccc4C(c4cc(OC)c(OC)c(OC)c4)=C4C=CC3=N4)C=C3C=CC(=N3)C=5c3cc(OC)c(OC)c(OC)c3)cc21` [(69)], for which the “Two-photon absorption cross-sectional area” value came to 920 GM.

For the compound `CCCCCCc1ccc(N(c2ccc(C3=C4C(C(=O)OC)=CC5=[N+]4[Co@]46[n]7c(cc(C(=O)OC)c73)C(c3ccc([N+](=O)[O-])cc3)=C3C=C(C(=O)OC)C(=[N+]34)C=c3c(C(=O)OC)cc([n]36)=C5c3ccc([N+](=O)[O-])cc3)cc2)c2ccc(C3=c4c(C(=O)OC)cc5[n]4[Co@]46[n]7c(cc(C(=O)OC)c7C=C7C(C(=O)OC)=CC(=[N+]74)C=5c4ccc([N+](=O)[O-])cc4)C(c4ccc([N+](=O)[O-])cc4)=C4C=C(C(=O)OC)C3=[N+]46)cc2)cc1` [(36)], the “Two-photon absorption cross-sectional area” value was 860 GM.

In the case of `CCCCCCc1ccc(N(c2ccc(-c3c4nc(c(-c5c(C)cc(C)cc5C)c5[nH]c(cc6nc(c(-c7c(C)cc(C)cc7C)c7[nH]c3c(CC)c7C)C(C)=C6CC)c(CC)c5C)C(C)=C4CC)cc2)c2ccc(-c3c4nc(c(-c5c(C)cc(C)cc5C)c5[nH]c(cc6nc(c(-c7c(C)cc(C)cc7C)c7[nH]c3c(CC)c7C)C(C)=C6CC)c(CC)c5C)C(C)=C4CC)cc2)cc1` [(25)], the “Two-photon absorption cross-sectional area” value came out at 860 GM.

Turning to `CCCCCCC1(CCCCCC)c2cc(-c3c4nc(c(-c5cc(OC)c(OC)c(OC)c5)c5ccc(cc6nc(c(-c7cc(OC)c(OC)c(OC)c7)c7ccc3[nH]7)C=C6)[nH]5)C=C4)ccc2-c2ccc(-c3c4nc(c(-c5cc(OC)c(OC)c(OC)c5)c5ccc([nH]5)c(/C=C/c5ccc(N(c6ccccc6)c6ccccc6)cc5)c5nc(c(-c6cc(OC)c(OC)c(OC)c6)c6ccc3[nH]6)C=C5)C=C4)cc21` [(67)], the “Two-photon absorption cross-sectional area” value worked out at 990 GM.

In the case of `CCCCCCC1(CCCCCC)c2cc(C3=C4C=CC(=N4)C(c4cc(OC)c(OC)c(OC)c4)=c4ccc5[n]4[Co][n]4c(ccc43)C(c3cc(OC)c(OC)c(OC)c3)=C3C=CC(=N3)C=5/C=C/c3ccc(N(c4ccccc4)c4ccccc4)cc3)ccc2-c2ccc(C3=c4ccc5[n]4[Co][n]4c(ccc4C(c4cc(OC)c(OC)c(OC)c4)=C4C=CC3=N4)C=C3C=CC(=N3)C=5c3cc(OC)c(OC)c(OC)c3)cc21` [(70)], the “Two-photon absorption cross-sectional area” value is given as 900 GM.

Consider `CCC1=C(CC)c2nc1c(Br)c1[nH]c(c(CC)c1CC)c(-c1ccc([N+](=O)[O-])cc1)c1nc(c(-c3ccc4c(c3)C(C)(C)c3cc(-c5c6nc(c(-c7ccc([N+](=O)[O-])cc7)c7[nH]c(c(Br)c8nc(c(-c9ccc([N+](=O)[O-])cc9)c9[nH]c5c(CC)c9CC)C(CC)=C8CC)c(CC)c7CC)C(CC)=C6CC)ccc3-4)c3[nH]c(c(CC)c3CC)c2-c2ccc([N+](=O)[O-])cc2)C(CC)=C1CC` [(27)], for which the “Two-photon absorption cross-sectional area” value was determined as 810 GM.
